Measurements reported in ChEMBL document CHEMBL3507680, “University of Dundee, Gates Library screen for HepG2 cell viability”.

assay: Human HepG2 cell viability assay in 384 well format; assay type: toxicity, cell-based; set-up: dose 125 nL, time 70.5 hour; concentration not given beside the values; details: HepG2 cells, read-out: Inhibition

Row | SMILES | cytotoxicity at 70.5 h
1 | CN(Cc1cnccn1)CC1CCOc2ccccc2C1 (centres undefined) | -12.2%
2 | Cc1cc(CNC(=O)NCc2cccs2)ccc1S(C)(=O)=O | -8.79%
3 | CC(=O)N[C@@H]1C[C@H](Cc2ccccc2)O[C@H](c2ccc(C(=O)O)cc2)C1 | -6.19%
4 | Cc1ccnn1CCC(=O)N1CCCC1c1cc2cccnc2[nH]1 (centres undefined) | 1.14%
5 | CCN(CC)Cc1cc(C(=O)N2CCC3(CC2)NCCNC3=O)c(C)o1 | 1.97%
6 | Cc1nc(C)c(C(=O)N2CCN(CCOc3ccccc3C)CC2)o1 | -8.43%
7 | O=C(NCCCn1cncn1)N1CCC(N2CCCCC2)CC1 | -2.83%
8 | CSCCC(Nc1nc(C)cc(C)n1)C(=O)NCC1CCOCC1 (centres undefined) | -8.81%
9 | CCc1cc(=O)n(CCNC(=O)Nc2ccc(OC(F)(F)F)cc2)cn1 | -3.46%
10 | COc1cccc(CN2CCC3(CC2)CCN(c2ncc(C)cn2)C3)c1 | -0.283%
11 | O=C(c1csc(C2CC2)n1)N1CCCC1Cn1cccn1 (centres undefined) | 0.252%
12 | Cc1nnc(C2CCN(C(=O)c3ccc4nccnc4c3)CC2)s1 | -8.52%
13 | O=C(CCOc1ccc(F)cc1)N1CCCC1Cn1cccn1 (centres undefined) | -2.78%
14 | Cc1ccccc1C(CNc1ncnc2c1CCNC2)N(C)C (centres undefined) | -7.27%
15 | CCN1CCc2[nH]cnc2C12CCN(Cc1ccc3nsnc3c1)CC2 | -5.41%
16 | Cc1ccc2cc(C(=O)N3CCCC3Cn3cccn3)[nH]c2c1 (centres undefined) | 24.4%
17 | O[C@H]1Cc2ccccc2[C@H]1Nc1ncccc1C(F)(F)F | -4.3%
18 | CCSc1ccc(NC(=O)N2CCCC2c2ccncc2)cn1 (centres undefined) | -8.21%
19 | CSc1ccc(NCc2csc(CS(C)(=O)=O)n2)cc1F | -1.97%
20 | CS(=O)(=O)NC[C@]12COC[C@H]1CN(C(=O)C1CC(F)(F)C1)C2 | -2.39%
21 | O=C(c1coc(COc2ccccc2F)n1)N1CCCO1 | -6.81%
22 | CCC[C@@H]1CN(Cc2ccccc2SC)C[C@H]1NC(C)=O | -5.44%
23 | CC(C)NC(=O)N1CC[C@@H]2CN(Cc3ccccc3)S(=O)(=O)[C@@H]2CC1 | 18.6%

Row | SMILES | cytotoxicity at 70.5 h
24 | CNC(=O)c1cc(NC(=O)Nc2cnn(CC(C)C)c2)ccc1F | -4.7%
25 | CCOC1CCN(C(=O)c2c(Cl)c3ccccc3n2C)CC1 | -7.26%
26 | O=C1CC[C@]2(CC[C@@H](NC(=O)NCc3cccnc3)CC2)N1 | -2.72%
27 | Cc1nc2cc(=O)[nH]n2c(C)c1CC(=O)Nc1ccc2ccccc2n1 | -6.2%
28 | COc1ccccc1CC(=O)N1CCC(NCc2ccccn2)CC1 | 21%
29 | CCn1cnnc1C1CCN(C(=O)c2cc(C)n(CC)c2C)CC1 | -5.03%
30 | CCCc1nc(C)c(C(=O)NC2CCN(CC(N)=O)CC2)s1 | -11.5%
31 | Cc1cc2[nH]c(=O)oc2cc1S(=O)(=O)N1C[C@@H](N(C)C)[C@H](C(C)C)C1 | -10.7%
32 | CCC(C)C(=O)NCc1ccn(-c2ccc(F)cc2)n1 (centres undefined) | 8.14%
33 | Cc1nc(C(C)C)sc1C(=O)N1CCN(C2CN3CCC2CC3)CC1 (centres undefined) | -6.54%
34 | Cc1nn(C)c(C)c1C(C)NCc1ccsc1 (centres undefined) | 3.61%
35 | NC(=O)N1CCCC1COC(=O)c1ccc(F)cc1Br (centres undefined) | 12.5%
36 | Cc1cc2cc(C(=O)N3CCN(CCO)[C@@H]4CS(=O)(=O)C[C@@H]43)ccc2o1 | 19.6%
37 | CCOc1cc(NC(=O)N(C)Cc2ncnn2C)ccc1C | 20.6%
38 | CCS(=O)(=O)N1CC[C@]2(C[C@@H](OCC3CC3)CO2)C1 | -8.16%
39 | Cc1cc(=O)n2ncnc2n1CC(O)c1ccc(F)cc1F (centres undefined) | -16.6%
40 | O=C(CN(C1=NCCCC1)c1ccccc1)c1ccc2c(c1)OCCO2 | -16.3%
41 | N#Cc1ccccc1CN1CCCCC1Cn1cncn1 (centres undefined) | -20%
42 | COc1cc(CCO)c(OC)c2c1OCO2 | -7.84%
43 | COC1CCN(S(=O)(=O)NCC2COc3ccccc3C2)CC1 (centres undefined) | -4.76%
44 | COCCOc1ccc(-c2noc([C@@H]3CCCN3)n2)cn1 | -0.543%
45 | CCCN1C(=O)C2(CCCCC2)NC1c1cn(C)c(=O)n(C)c1=O (centres undefined) | -6.69%
46 | O=c1[nH]c2c(c(=O)n1C1CCCCC1)CCC2Nc1ccccc1 (centres undefined) | 6.54%

Row | SMILES | cytotoxicity at 70.5 h
47 | Cc1ccn(-c2ccccc2NCc2ncc[nH]2)n1 | 3.45%
48 | C=C(C)CN(Cc1cccc(O)c1)C1CCC(O)CC1 (centres undefined) | -6.84%
49 | COc1cc(-c2cccc3c2OC(CN)C3)cc(OC)c1OC (centres undefined) | -1.4%
50 | CC(=O)Nc1ccc(Cl)c(C(=O)N(C)Cc2nc(C)c[nH]2)c1 | -8.28%
51 | Cc1nc(NCCSc2nnc(C)s2)c2cccnc2n1 | -14.5%
52 | c1cncc(CN2CC[C@H]3O[C@@H](COCC4CC4)CC[C@H]32)c1 | -5.15%
53 | Cc1noc(Cl)c1CC(=O)N1CCC(Nc2cccnn2)CC1 | -1.04%
54 | Cc1cc(C(=O)N2CCCC(n3cncn3)C2)no1 (centres undefined) | -0.711%
55 | O=C(NCc1ccco1)N(CCCO)C1CCCc2ccccc21 (centres undefined) | -5.76%
56 | O=C(Nc1cccc(Cn2cccn2)c1)N1CCCC(N2CCCC2)C1 (centres undefined) | -4.22%
57 | Cc1c(Br)c(C(F)F)nn1C(C)C(=O)O (centres undefined) | -10.2%
58 | COc1ccc(-c2cccc(-c3ccn(CCCN(C)C)n3)c2)nn1 | -13.7%
59 | CC(C)OCCSc1nnnn1C1CCOCC1 | -8.16%
60 | O=C(NC1CC1)[C@H]1CN(Cc2ccccc2)C[C@@H]1C(=O)c1ccccc1 | -3.57%
61 | CCN(Cc1ccc(C#N)cc1F)C(=O)C(C)(C)C | -0.767%
62 | O=C(c1cscn1)N1CCC2(CN(Cc3nccs3)C2)C1 | -11.9%
63 | CNc1cc(CCNC(=O)CC(C)C)nc(-c2ccccn2)n1 | -7.32%
64 | O=C(Nc1ccc(F)cc1)C1CSCN1 (centres undefined) | -10.2%
65 | CN(CC(=O)N1CCCC1c1cnn(C)c1)Cc1ccccc1 (centres undefined) | -11.9%
66 | COc1cc(C(=O)NS(=O)(=O)c2cccc(C#N)c2)ccc1C | -7.93%
67 | CC(=O)c1c(C)nn(S(=O)(=O)c2ccc(C)cc2)c1C | 0.514%
68 | COc1ccccc1OC1(C(=O)O)CCN(c2ccccn2)CC1 | 1.96%
69 | COCCC(=O)NCc1ccc(-c2ccccc2C(=O)O)cn1 | -6.35%

Row | SMILES | cytotoxicity at 70.5 h
70 | O=S(=O)(CCCn1cncn1)Cc1cccc(F)c1 | -9.13%
71 | N#Cc1ccccc1CN1CCCC(c2nccn2CC2CC2)C1 (centres undefined) | 12.6%
72 | CC(C)Cn1cnc(S(=O)(=O)Nc2cccnc2-n2cccn2)c1 | -1.98%
73 | Cc1nc(C2CCCN2CC(=O)Nc2c(C)n[nH]c2C)no1 (centres undefined) | 39%
74 | Cn1ccc(CN2CCC(CC(=O)NC3CCCC3)CC2)cc1=O | 15%
75 | Cc1ccc(C(=O)NCCCn2cncn2)c(=O)[nH]1 | 21.9%
76 | CN(C)C(=O)[C@@H]1C[C@@H]2CCN(C3CCOCC3)C[C@H]2O1 | -4.53%
77 | COCCN1CCN(S(=O)(=O)C2CC2)Cc2cccnc21 | -5.48%
78 | CCCN1CCCC(O)(c2nc(C)c(COc3ccccc3)s2)CC1 (centres undefined) | 13.4%
79 | Cc1ccc(NC2CCN(C(=O)c3cnn(C(C)(C)C)c3)CC2)nn1 | -14.1%
80 | Cc1ccc2c(c1)SCC(=O)N2CC(=O)N1CCCC1c1cc(C)no1 (centres undefined) | 12.8%
81 | N#Cc1cnc2c(F)cc(F)cc2c1NC1CCN(CC(N)=O)CC1 | -5.14%
82 | CCc1csc(CCNC(=O)CC2CCN(C(C)C)CC2)n1 | 23%
83 | C=C(C)CN1CCC(NC(=O)Nc2ccc(F)c(C(N)=O)c2)CC1 | -6.42%
84 | CNC(=O)CN1CC[C@H]2CN(C(=O)c3ccccc3F)C[C@H]2C1 | -2.12%
85 | O=C(Nc1nncs1)NC1CCc2ccccc21 (centres undefined) | -8.87%
86 | O=C(Nc1ccnc2ccnn12)c1ccc(NC2CC2)nc1 | -1.35%
87 | O=C1COc2cc(C(=O)NS(=O)(=O)c3ccc(F)cc3)ccc2N1 | -17.6%
88 | CC(Cn1ccnc1)NC(=O)NCCN1CCCCCC1=O (centres undefined) | -4.74%
89 | COCC(=O)NC[C@H]1CC[C@H](c2nnc(-c3cccnc3)o2)CC1 | -7.6%
90 | COc1ccc(C2(c3nc(-c4cccnc4)no3)CCOCC2)cc1 | 34.4%
91 | CC(C)Oc1ccc(CN2CCN3CCN(C)CC3C2)cc1CO (centres undefined) | -5.57%
92 | CN(CCCOc1ccccc1)Cc1nc2c(cnn2C)c(=O)[nH]1 | -1.06%

Row | SMILES | cytotoxicity at 70.5 h
93 | CC(C)(C)c1cn(C[C@H]2CC3CCN2C[C@@H]3C(=O)N2CCOCC2)nn1 (some centres undefined) | 2.28%
94 | Cc1cc(O)nc(C2CCCNC2)n1 (centres undefined) | -3.99%
95 | Cn1cc(CCNC(=O)N2CCCC(c3nncn3C)C2)cn1 (centres undefined) | -4.93%
96 | Cc1cc(CN2CCO[C@H]3[C@H](OCc4csc(C)n4)CC[C@@H]32)no1 | 2.95%
97 | Cc1nc(NCc2scnc2-c2ccccc2)cc(C2CCNCC2)n1 | -6.26%
98 | CC(C)c1nn(C)c(Cl)c1CNCc1ccc2c(c1)OCO2 | -5.25%
99 | CS(=O)(=O)N1CCO[C@@H]2CN(C(=O)C3CCOC3)CC[C@@H]2C1 (some centres undefined) | -6.14%
100 | CCC(Nc1ncccn1)c1ccc(OC)cc1 (centres undefined) | 6.83%
101 | Cn1nc(C(=O)NC2CCCCC2)cc1NC(=O)C1CC1 | -5.38%
102 | O=C(C1CCCCC1)N1CC2(CCNCC2)C1 | 1.58%
103 | COC(=O)c1cc(C2CC2)nc2c(C#N)cnn12 | 25%
104 | CC(C)c1nnc2n1CCN(CC(=O)Nc1sccc1C#N)C2 | 13.5%
105 | CCC[C@@H]1CN(C(=O)c2cc(-c3cccs3)n(C)n2)C[C@H]1N(C)C | -8.43%
106 | CC(=O)Nc1nc(C(=O)NCc2ccc(OC(C)C)nc2)cs1 | -5.15%
107 | COc1ccc2cc(C3CN(C(=O)C4CCOCC4)CCO3)ccc2c1 (centres undefined) | 1.57%
108 | COc1ccc(C)cc1C1(CNc2cn[nH]c(=O)c2Cl)CCOCC1 | -5.9%
109 | COc1nc2c(cc1C(=O)NCCCc1nnc(N)s1)CCC2 | -1.23%
110 | Cc1ccccc1CN1CCC2(CC1)CN(S(=O)(=O)c1ccccc1)C2 | -6.98%
111 | NC(=O)c1ccc(C2CN(Cc3ccc(F)cc3)CCO2)nc1 (centres undefined) | 27.6%
112 | CN1CCN(c2cnn(CCn3cccn3)c(=O)c2)CC1 | -3.04%
113 | COc1cccc(CN2CCCC(c3cc(C(N)=O)[nH]n3)C2)c1 (centres undefined) | -12.6%
114 | COCC(=O)NCc1cc2n(n1)CCCN(Cc1ccccc1SC)C2 | -6.55%
